“And” between values parts separate entries of the source, which are not always exact repeats. Equal values may be shown once. Read-outs that look alike come from different tables or passages of the source.
Key:
Influenza A virus H1N1 = format: cell-based; settings: MDCK cells 10^4 cells/100 μL/well
Influenza A virus H3N2 = format: cell-based; settings: MDCK cells 10^4 cells/100 μL/well
melanoma B-16 = assay: Lung metastases development in mice bearing melanoma B-16; format: in vivo, C57BL/6 mice; settings: for Animals without metastases % / Number of metastatic nodules/mouse % inhibition / Number of metastatic nodules/mouse mean (min-max): counted day 30; for reduction of lung metastases to a fraction of the number in untreated control groups: i.v. administration on day 4
Experimental: ^a Groups of 8 C57BL/6 mice (5-6 months old), inoculated i.v. with
10^5 melanoma B16 cells on day 0, were given i.v. 25 mg/kg of each
test compound (saline for controls) on days 4 or 7.
Macroscopically detectable lung metastases were counted on day 30.

MCa mammary carcinoma [1] = assay: Lung metastases development in mice bearing MCa mammary carcinoma; format: in vivo, CBA mice; settings: for Animals without macroscopically detectable lung metastases % / lung metastases % Inhibition / lung metastases, mean: 25 mg/kg i.v. days 1, 5, 9, 13, evaluated day 23, hydrochloride
Experimental: | ^a Groups of 7 CBA mice, inoculated i.m. into the calf of the left | hind leg with 10^6 viable MCa mammary carcinoma cells on day 0, were | given i.v. 25 mg/kg of each test compound (saline for controls) on days 1 | 5, 9, 13. Lung metastases evaluation was performed on the freshly removed | lung tissue immediately after killing on day 23 by using a low power | stereo microscope. | ^b Animals without macroscopically detectable lung metastatic nodules

MCa mammary carcinoma [2] = assay: Survival time of mice bearing MCa mammary carcinoma; format: in vivo, CBA mice; settings: hydrochloride
Experimental: (§1) ^a Groups of 7 CBA mice, inoculated i.m. into the calf of the left
(§2) hind leg with 10^6 viable MCa mammary carcinoma cells on day 0, were
(§3) given i.v. the test compounds (saline for controls) on days 1, 5, 9, 13.
^b Survival time was recorded as the number of days of survival of
each mouse from the tumor implantation.

anti-HgG antibodies = assay: Immunoadjuvant activity in rabbits immunized with human gamma globulin (HgG); format: in vivo, New Zealand rabbits; settings: 0.3 mg i.v. in PBS three days after immunogen; versus controls immunized with HgG in incomplete Freund's adjuvant
Experimental: The immunostimulating property of Isomer 1 and Isomer 2 of D,L(2-adamantyl-)-glycyl-L-alanyl-D-isoglutamine was tested in rabbits immunized with human gamma globulin (HgG).
New Zealand rabbits (five per group) were immunized s.c. with 0.5 mg of HgG in incomplete Freund's adjuvant. Isomer 1/Isomer 2 (0.3 mg) was administered i.v. in phosphate buffered saline (PBS) three days after immunogen. The formation of anti-HgG antibodies was followed by a solid phase radioimmunoassay method to provide a quantitative measure of anti-HgG antibodies in rabbit sera. Serum antibody content (mg/mL) was determined by parallel line bioassay method, using >>SIGMA<< antihuman IgG (whole molecule) as a standard.

MCa mammary carcinoma [3] = assay: Intramuscular tumor growth in mice bearing MCa mammary carcinoma; format: in vivo, CBA mice; settings: for Primary tumor weight % Inhibition / Primary tumor weight mg ± S.E.: 24 hrs after last treatment, hydrochloride
Experimental: The antitumor activity was examined in CBA mice bearing the MCa mammary carcinoma tumor or in C57BL mice inoculated with B-16 melanoma. The doses tested, 5 and 25 mg/kg bodyweight/day, given i.v. on days 1, 5, 9, 13 after tumor implantation were devoid of severe toxicity.
as §1, §2, §3
^b Evaluated 24 hrs after the last treatment. The tumor growth was
estimated by calliper measurements taking tumor density equal to 1 and
using the formula: tumor weight = (π/6)xA^2 xB, with A and B as tw
perpendicular axes (A<B).

[4] = 25 mg/kg i.v. on day +4, hydrochloride
[5] = 25 mg/kg i.v. on day +7, hydrochloride

In the case of `NC12CC3CC(CC(C3)C1)C2` [Symmetrel, amantadine, reference compound], the “MIC (minimum inhibitory concentration)” value (Influenza A virus H1N1) was under 12.5 µg and the “MIC (minimum inhibitory concentration)” value (Influenza A virus H3N2) was under 12.5 µg.
With `C[C@H](NC(=O)C(N)C1C2CC3CC(C2)CC1C3)C(=O)N[C@H](CCC(=O)O)C(N)=O.Cl` (single isomer, unassigned; isomer 2) [Isomer 2, D,L-(2-Adamantyl-)-glycyl-L-alanyl-D-isoglutamine hydrochloride] the “Animals without metastases %” value (melanoma B-16; 25 mg/kg i.v. on day +4) was 37%, the “Number of metastatic nodules/mouse % inhibition” value (melanoma B-16; [4]) was -69% and the “Number of metastatic nodules/mouse mean (min-max)” value (melanoma B-16; [4]) was 0.97 (0-2). For the same molecule, the “Animals without metastases %” value (melanoma B-16; [5]) was 28%, the “Number of metastatic nodules/mouse % inhibition” value (melanoma B-16; [5]) was -48% and the “Number of metastatic nodules/mouse mean (min-max)” value (melanoma B-16; [5]) was 1.38 (0-4). The “reduction of lung metastases to a fraction of the number in untreated control groups” value (melanoma B-16) was 1/3, the “spontaneous dissemination of tumor to the lungs, % of controls” value (MCa mammary carcinoma [1]; 25 mg/kg bodyweight/day i.v.) was 24 % of controls and the “Animals without macroscopically detectable lung metastases %” value (MCa mammary carcinoma [1]) was 57.1% and 57%. For the same molecule, the “lung metastases % Inhibition” value (MCa mammary carcinoma [1]) was -76%, the “lung metastases, mean” value (MCa mammary carcinoma [1]) was 1.14 and the “MIC (minimum inhibitory concentration)” value (Influenza A virus H1N1; hydrochloride) was 100 µg. The “Survival time % Increase” value (MCa mammary carcinoma [2]; 5 mg/kg i.v. days 1, 5, 9, 13) was “+22%”, the “Survival time (days) mean (min-max)” value (MCa mammary carcinoma [2]; 5 mg/kg i.v. days 1, 5, 9, 13) was 27.4 (18-40) days and the “Survival time % Increase” value (MCa mammary carcinoma [2]; 25 mg/kg i.v. days 1, 5, 9, 13) was “+32%”. For the same molecule, the “Survival time (days) mean (min-max)” value (MCa mammary carcinoma [2]; 25 mg/kg i.v. days 1, 5, 9, 13) was 29.7 (18-40) days, the “MIC (minimum inhibitory concentration)” value (Influenza A virus H3N2; hydrochloride) was 50 µg and the “Antibody formation against HgG” value (anti-HgG antibodies) was “significantly enhanced”. The “reduction of the volume of the intramuscular tumor” value (MCa mammary carcinoma [3]; 5 mg/kg bodyweight/day i.v., 24 hours after the last day of treatment) was 44%, the “Primary tumor weight % Inhibition” value (MCa mammary carcinoma [3]; 5 mg/kg i.v. days 1, 5, 9, 13) was -44% and the “Primary tumor weight mg ± S.E.” value (MCa mammary carcinoma [3]; 5 mg/kg i.v. days 1, 5, 9, 13) was 1076 ± 132 mg. For the same molecule, the “Primary tumor weight % Inhibition” value (MCa mammary carcinoma [3]; 25 mg/kg i.v. days 1, 5, 9, 13) was -19% and the “Primary tumor weight mg ± S.E.” value (MCa mammary carcinoma [3]; 25 mg/kg i.v. days 1, 5, 9, 13) was 1559 ± 177 mg.
`C[C@H](NC(=O)C(N)C1C2CC3CC(C2)CC1C3)C(=O)N[C@H](CCC(=O)O)C(N)=O.Cl` (single isomer, unassigned; isomer 1) [Isomer 1, D,L-(2-Adamantyl-)-glycyl-L-alanyl-D-isoglutamine hydrochloride] was tested, and the “Animals without metastases %” value (melanoma B-16; 25 mg/kg i.v. on day +4) was 37%, the “Number of metastatic nodules/mouse % inhibition” value (melanoma B-16; [4]) was -68% and the “Number of metastatic nodules/mouse mean (min-max)” value (melanoma B-16; [4]) was 1.0 (0-2). For the same molecule, the “Animals without metastases %” value (melanoma B-16; [5]) was 37%, the “Number of metastatic nodules/mouse % inhibition” value (melanoma B-16; [5]) was -76% and the “Number of metastatic nodules/mouse mean (min-max)” value (melanoma B-16; [5]) was 0.64 (0-1). The “reduction of lung metastases to a fraction of the number in untreated control groups” value (melanoma B-16) was 1/3, the “Animals without macroscopically detectable lung metastases %” value (MCa mammary carcinoma [1]) was 14.3% and the “lung metastases % Inhibition” value (MCa mammary carcinoma [1]) was -43%. For the same molecule, the “lung metastases, mean” value (MCa mammary carcinoma [1]) was 2.71, the “MIC (minimum inhibitory concentration)” value (Influenza A virus H1N1; hydrochloride) was 12.5 µg and the “Survival time % Increase” value (MCa mammary carcinoma [2]; 5 mg/kg i.v. days 1, 5, 9, 13) was “+10%”. For the same molecule, the “Survival time (days) mean (min-max)” value (MCa mammary carcinoma [2]; 5 mg/kg i.v. days 1, 5, 9, 13) was 24.6 (18-31) days, the “Survival time % Increase” value (MCa mammary carcinoma [2]; 25 mg/kg i.v. days 1, 5, 9, 13) was “+13%” and the “Survival time (days) mean (min-max)” value (MCa mammary carcinoma [2]; 25 mg/kg i.v. days 1, 5, 9, 13) was 25.4 (15-40) days. The “MIC (minimum inhibitory concentration)” value (Influenza A virus H3N2; hydrochloride) was over 200 µg, the “Primary tumor weight % Inhibition” value (MCa mammary carcinoma [3]; 5 mg/kg i.v. days 1, 5, 9, 13) was -28% and the “Primary tumor weight mg ± S.E.” value (MCa mammary carcinoma [3]; 5 mg/kg i.v. days 1, 5, 9, 13) was 1387 ± 224 mg. For the same molecule, the “Primary tumor weight % Inhibition” value (MCa mammary carcinoma [3]; 25 mg/kg i.v. days 1, 5, 9, 13) was -21% and the “Primary tumor weight mg ± S.E.” value (MCa mammary carcinoma [3]; 25 mg/kg i.v. days 1, 5, 9, 13) was 1522 ± 182 mg.

From patent US5286715A, “New adamantyl comprising tripeptides, derivatives and hydrochlorides thereof, their preparation and use” (priority 1989, dated 1994)
